Results taken from the NIST ThermoML archive (doi:10.1021/je200707b).

How the values were obtained:
[1] = xn = mol fraction of the nth substance listed; settings: 101.3 kPa, Liquid; for viscosity: Falling or rolling sphere viscometry; for mass density: Vibrating tube method
[2] = refractive index (Na D-line) (dimensionless); xn = mol fraction of the nth substance listed; settings: 298.15 K, 101.3 kPa, Liquid, Standard Abbe refractometry

CC(=O)O.CCCCN [butylammonium acetate] + CCCCO
[1]
Settings | mass density, 293.15 K [kg/m3] | mass density, 298.15 K [kg/m3] | mass density, 303.15 K [kg/m3] | mass density, 308.15 K [kg/m3] | mass density, 313.15 K [kg/m3] | viscosity, 293.15 K [mPa·s] | viscosity, 298.15 K [mPa·s] | viscosity, 303.15 K [mPa·s] | viscosity, 308.15 K [mPa·s] | viscosity, 313.15 K [mPa·s]
x1 = 0.029 | 817.08 | 813.28 | 809.45 | 805.57 | 801.67 | 3.564 | 3.19 | 2.787 | 2.455 | 2.164
x1 = 0.0583 | 824.15 | 820.36 | 816.55 | 812.7 | 808.82 | 4.397 | 3.806 | 3.318 | 2.908 | 2.592
x1 = 0.1003 | 833.62 | 829.88 | 826.11 | 822.23 | 818.46 | 5.588 | 4.823 | 4.165 | 3.636 | 3.17
x1 = 0.1981 | 853.55 | 849.9 | 846.22 | 842.52 | 838.78 | 9.789 | 8.389 | 7.151 | 6.123 | 5.297
x1 = 0.2981 | 871.49 | 867.92 | 864.33 | 860.72 | 857.08 | 17.14 | 14.41 | 12.18 | 10.39 | 8.894
x1 = 0.399 | 887.71 | 884.21 | 880.69 | 877.17 | 873.62 | 28.33 | 23.48 | 19.6 | 16.5 | 14
x1 = 0.497 | 901.99 | 898.53 | 895.09 | 891.62 | 888.15 | 50.23 | 41.01 | 33.21 | 28.45 | 23.98
x1 = 0.6489 | 921.84 | 918.48 | 915.12 | 911.75 | 908.37 | 107.74 | 86.03 | 69.14 | 56.31 | 45.89
x1 = 0.7984 | 939.21 | 935.95 | 932.68 | 929.4 | 926.1 | 225.04 | 170.61 | 138.1 | 109.79 | 87.65
x1 = 0.9003 | 949.8 | 946.58 | 943.37 | 940.16 | 936.93 | 389.54 | 287.99 | 216.86 | 167.15 | 129.84

[2]
Settings | refractive index
x1 = 0.029 | 1.3999
x1 = 0.0583 | 1.4023
x1 = 0.1003 | 1.4053
x1 = 0.1981 | 1.4115
x1 = 0.2981 | 1.417
x1 = 0.399 | 1.4217
x1 = 0.497 | 1.4256
x1 = 0.6489 | 1.4314
x1 = 0.7984 | 1.4366
x1 = 0.9003 | 1.4399
